In paper PMC10552892, “Ebselen oxide and derivatives are new allosteric HER2 inhibitors for HER2‐positive cancers” (Molecular Oncology, 2023):

Columns and labels:
SKBR3 = assay: Soft agar anchorage-independent growth, SKBR3; assay type: cell-based, human; details: 10 μM
Procedure: A bottom layer of 0.8% agarose in DMEM supplemented with 20% FBS and penicillin/streptomycin was added to 24‐well plates before seeding 25.10^3 cells per well in a 0.6% agarose top layer. Cells were treated with a vehicle or with 10 μM ebselen oxide or derivatives. Treatments were renewed 3 times a week. After 6 weeks, colonies were visualized with a phase‐contrast microscope and their number and size were quantified using IMAGEJ software.
Fig. 2 Ebselen oxide inhibits HER2 activation, cell proliferation, and anchorage‐independent growth of HER2^+ breast cancer cells. […] Blot and quantification of a representative experiment are shown out of 4 (A), 5 (B), or 2 (C) independent experiments. (D–F) Proliferation curves of HER2‐positive (SKBR3, D or BT474, E) or HER2‐negative (MDA‐MB‐231, F) breast cancer cell lines treated with vehicle or 10 μM ebselen oxide assessed by MTT assay. […] (G–I) Anchorage‐independent growth of SKBR3 (G), BT474 (H), or MDA‐MB‐231 (I) cells treated with vehicle or 10 μM ebselen oxide. […] Scale bars are […].

[1] = system: BT474 cells implanted in the mammary fat pad; assay: Tumor growth in orthotopic BT474 xenograft in immunodeficient mice; assay type: in vivo; details: for Tumor size increase between day 19 and day 40: 5 days a week, vehicle 172%
Source text: Experiments were done as already described on the TrGET platform of centre de Recherche de Cancérologie de Marseille (Institut Paoli Calmettes, Marseille, France) in accordance with the guidelines of the Institut National de la Santé et de la Recherche Médicale. The study was approved by the Animal Experimentation Ethics Committee of Marseille (APAFIS#2079‐2015092811101360 v3). Briefly, 7‐to‐8‐week‐old female NOD.Cg‐Prkdc scid/J (NSG) mice were purchased from Charles River France or bred in‐house and maintained on a 12‐h light and 12‐h dark cycle, under specific pathogen‐free conditions with sterilized food and water provided ad libitum. The initial body weight of the animals at the time of arrival was between 19 and 24 g. Mice were allowed to acclimatize to local conditions for 1 week before being injected with tumor cells. 5 × 10^6 BT474 cells resuspended in 100 μL (50% matrigel and 50% PBS) were implanted orthotopically in the mammary fat pad of NSG mice anesthetized with ketamine and xylazine and administered with the nonsteroidal anti‐inflammatory drug metacam (SC, 1 mg·kg^−1). Estradiol pellets were implanted subcutaneously. Metacam was administered 24 and 48 h postimplantation. Nineteen days after implantation, mice were randomized into […] to be administered intraperitoneally during 3 weeks with vehicle (10% DMSO in PBS, twice a day, 5 days a week, n = 8), 3 mg·kg^−1 ebselen oxide (twice a day, 5 days a week, n = 8), or […] ebselen oxide (twice a day, 5 days a week, n = 8). Mice weight and tumor volume were assessed 2–3 times a week using a caliper. At the end of the experiment, the collected tumors were photographed, weighed, and cut into halves to be embedded in OCT for immunohistofluorescence analysis or frozen in liquid nitrogen for western blot analysis.
The collected tumors embedded in OCT were cut into 5 μm thick sections and immobilized on superfrost™ plus microscope slides. Sections were fixed in 4% paraformaldehyde for 10 min at room temperature, washed three times in PBS, permeabilized for 10 min in PBS containing 0.1% Triton X100, washed with PBS, blocked for 30 min in PBS containing 3% BSA and incubated 1 h at room temperature with primary antibodies [Monoclonal anti‐HER2 (clone Cle2‐4001 and 3B5, IF‐1 : 100) or polyclonal anti‐KI67 (ref PA5‐16785, IF‐1 : 200)]. Sections were again washed three times in PBS and incubated 1 h at room temperature with fluorescence‐conjugated secondary antibodies from Jackson Immunoresearch Laboratories. After mounting, samples were scanned using a Lamina multilabel slide scanner (PerkinElmer). The proliferative index (mean percentage of Ki67‐positive nuclei) was quantified on 10 regions (area 0.2 mm^2) per slide (vehicle, n = 7; ebselen oxide n = 5) using IMAGEJ software.
We then explored the potential of ebselen oxide to reduce the growth of HER2‐overexpressing tumors in vivo. Nineteen days after orthotopic implantation of BT474 cells in the mammary fat pad of immunodeficient […] mice, mice received 3 or 5 mg·kg^−1 ebselen oxide, intraperitoneally (once or twice a day, as indicated, 5 days a week) or vehicle as a control. […] Conversely, in animals treated with 5 mg·kg^−1 ebselen oxide, it increased only by 44% in mice treated with 5 mg·kg^−1 ebselen oxide, corresponding to a significant growth inhibition index of 75% at day 40 (Fig. 5C–E). […] Of note, there was an excellent correlation between tumor volume and tumor weight (R ^2 = 0.9611, Fig. 5H). […] We next analyzed biochemically the intratumoral level of activated HER2 and downstream signaling in vehicle‐ and 5 mg·kg^−1 ebselen oxide‐treated mice.

NCI-N87 = assay: Proliferation of NCI-N87 cells; assay type: cell-based, human; details: ebselen oxide 7–10 μM, AG1478 5 μM
Procedure: Fig. 3 Ebselen oxide inhibits HER2 activation and HER2‐dependent proliferation in gastric and ovarian HER2^+ cancer cells. (A) HER2‐positive NCI‐87 gastric cancer cells were treated with ebselen oxide (0–20 μM) for 24 h, lysed, and analyzed by western blot using anti‐pY1248‐HER2, HER2, and β‐tubulin antibodies. A representative western blot is shown out of 4 independent experiments. (B) HER2‐positive SKOV3 ovarian cancer cells were treated with ebselen oxide (0–10 μM) for 24 h, lysed, and analyzed by western blot using anti‐pY1248‐HER2, HER2, and ezrin antibodies. A western blot is shown (n = 1). (C, D) Proliferation curves of NCI‐N87 gastric (C) or SKOV3 ovarian (D) cancer cells treated with vehicle or 7–10 μM ebselen oxide measured by MTT assay. Data are mean ± SEM (n = 9–12) of three independent experiments.
Supplementary figure 4: NCI-N87 and SKOV3 cancer cell lines are addicted to the HER2 pathway
(A) NCI-N87 cells were treated (+) or not (-) with a non-specific HER2 inhibitor AG1478 (5 µM). Whole cell lysates were analyzed by western blot with pY1248 HER2, HER2 and pERK antibodies.
(B) SKOV3 cells were treated (+) or not (-) with a non-specific HER2 inhibitor AG1478 (5 µM). Whole cell lysates were analyzed by western blot with pY1248 HER2, HER2, pERK or beta-tubulin antibodies.
(C) Proliferation curves of NCI-N87 treated or not with AG1478 (5 µM). Data are mean ± sem (n=4-6). 2- […]

O=C1c2ccccc2[Se](=O)N1c1ccccc1 (centres unmarked) [Ebselen oxide, ebselen oxide]
Reduction in the size of micro-colonies (SKBR3): more than 40% | Tumor size increase between day 19 and day 40 ([1]; 3 mg·kg−1 i.p.): 112% | Reduction in tumor size and weight compared to vehicle ([1]; 3 mg·kg−1 i.p., day 40): only a little reduction | Drop of tumor proliferation index (Ki67) vs vehicle ([1]; 5 mg·kg−1, immunofluorescence on tumor sections): 32% | Decrease of HER2 activation in tumor lysates vs vehicle ([1]; 5 mg·kg−1, western blot): 30% | Inhibition of Akt activation in tumor lysates ([1]; 5 mg·kg−1, western blot): 50% | Inhibition of ERK activation in tumor lysates ([1]; 5 mg·kg−1, western blot): 45% | Tumor size increase between day 19 and day 40 ([1]; 5 mg·kg−1 i.p.): 44% | Growth inhibition index ([1]; 5 mg·kg−1 i.p., day 40): 75% | Drop in tumor weight compared to vehicle-treated group ([1]; 5 mg·kg−1 i.p., tumors collected at day 40): 40% | Mice body weight after day 30 ([1]; 3 and 5 mg·kg−1, recovered after reduction from two to one injection per day): decrease of mice body weight | Tolerability (mice body weight) ([1]; 3 and 5 mg·kg−1 i.p. twice a day): well‐tolerated until day 30 | Decrease in the mammary tumor volume (discussion) ([1]; mouse model, ebselen oxide administration): 40% | Effect on proliferation (NCI-N87): reduced proliferation
